Legend:
Monilinia fructigena = assay: Kirby-Bauer disk diffusion test, Monilinia fructigena; settings: for % mycelium growth relative to the control / mycelium growth: V8 medium; for mycelium growth: control 5.4 cm; for EFFICACY W (Abbot): control W=0, no growth W=100
Protocol: (§1) The performance of the embodiments of the present inventions and their mixtures enriched with millbase (MFA) was analysed against the appropriate reference substance, i.e., a commercial product containing the analogue active substance with the same concentration. The prepared solutions were applied on the paper antibiograms. Then the soaked antibiograms were placed on the Petri Dishes (dish diameter 90 mm) with the growth medium for fungal pathogens V8. Composition of V8: agar, calcium carbonate and multi-vegetable juice. 3 fragments of mycelium of the tested pathogen (5×5 mm) were transplanted onto the prepared medium. As a result, the zones where the fungal growth was inhibited have been measured and compared respectively with the control sample and the analogue active substance sample.
(§2) Assessment was carried out by determining the infested area of the Petri dish in %. These percentages have been converted into efficacy (W) according to Abbot's formula as follows: W=(1−α/β)×100 • where: • α—corresponds to the mycelium/bacterial growth of each tested sample [%], • β—corresponds to the mycelium/bacterial growth in control sample [%].
(§3) In order to estimate if the combined action effect with the commercial fungicide, the W parameter of the mixture was compared with W parameter for particular commercial fungicide solo. Where W=0 the efficacy of the control sample (whole Petri dish covered with mycelium), and W=100 is when no mycelium growth observed.

Venturia inaegualis = assay: Kirby-Bauer disk diffusion test, Venturia inaequalis; settings: for EFFICACY W (Abbot): control W=0, no growth W=100
Protocol: (§4) The microbiological tests were carried out by applying Kirby-Bauer Disk Diffusion Susceptibility Test Protocol for antimicrobial activity. It is based on the formation of a concentration gradient in the growth medium during the diffusion of the active substance from the antibiogram disc (Kirby-Bauer method).
as §1, §2, §3

[1] = test system: Colletotrichum gloeosporioides; assay: Kirby-Bauer disk diffusion test, Colletotrichum gloeosporioides; settings: Colletotrichum gloeosporioides; for % mycelium growth relative to the control / mycelium growth: V8 medium; for mycelium growth: control 5.4 cm; for EFFICACY W (Abbot): control W=0, no growth W=100
Protocol: as §4, §1, §2, §3

Botrytis cinerea = assay: Kirby-Bauer disk diffusion test, Botrytis cinerea; settings: for % mycelium growth relative to the control / mycelium growth: V8 medium; for mycelium growth: control 8.6 cm; for EFFICACY W (Abbot): control W=0, no growth W=100
Protocol: as §1, §2, §3

Phytophthora megasperma = assay: Kirby-Bauer disk diffusion test, Phytophthora megasperma; settings: Phytophthora megasperma; for % mycelium growth relative to the control / mycelium growth: V8 medium; for mycelium growth: control 5.4 cm (8.6 cm in Table 25); for EFFICACY W (Abbot): control W=0, no growth W=100
Protocol: as §4, §1, §2, §3

Phytium ultimum = assay: Kirby-Bauer disk diffusion test, Phytium ultimum
Protocol: as §1, §2, §3

Phytophthora cactorum = assay: Kirby-Bauer disk diffusion test, Phytophthora cactorum; set-up: % mycelium growth relative to the control: concentration or dose not given beside the values; settings: for % mycelium growth relative to the control / mycelium growth: V8 medium; for mycelium growth: control 5.4 cm; for EFFICACY W (Abbot): control W=0, no growth W=100
Protocol: as §1, §2, §3

Septoria tritici = assay: Kirby-Bauer disk diffusion test, Septoria tritici
Protocol: as §1, §2, §3

Rhizoctonia solani = assay: Kirby-Bauer disk diffusion test, Rhizoctonia solani
Protocol: as §1, §2, §3

Sclerotinia sclerotiorum = assay: Kirby-Bauer disk diffusion test, Sclerotinia sclerotiorum
Protocol: as §1, §2, §3

[2] = test system: Alternaria infectoria/alternata; assay: Kirby-Bauer disk diffusion test, Alternaria infectoria/alternata
Protocol: as §1, §2, §3

Fusarium oxysporum = assay: Kirby-Bauer disk diffusion test, Fusarium oxysporum; settings: Fusarium oxysporum
Protocol: as §4, §1, §2, §3

Verticillium longisporum = assay: Kirby-Bauer disk diffusion test, Verticillium longisporum
Protocol: as §1, §2, §3

Septoria nodorum (1291) = assay: Kirby-Bauer disk diffusion test, Septoria nodorum (1291)
Protocol: as §1, §2, §3

Fusarium equiseti = assay: Kirby-Bauer disk diffusion test, Fusarium equiseti
Protocol: as §1, §2, §3

[3] = Venturia inaegualis, V8 medium, control 2.9 cm

In the case of O=C1C2CC=CCC2C(=O)N1SC(Cl)(Cl)Cl (stereo not drawn) [Captan (1500)], the “% mycelium growth relative to the control” value (Monilinia fructigena) is reported as 33%, the mycelium growth (Monilinia fructigena) is reported as 1.8 cm and the “EFFICACY W (Abbot)” value (Monilinia fructigena) is reported as 67. For the same compound, the “% mycelium growth relative to the control” value (Venturia inaegualis; Venturia inaegualis, V8 medium) was 38%, the mycelium growth (Venturia inaegualis; [3]) was 1.1 cm and the “EFFICACY W (Abbot)” value (Venturia inaegualis; Venturia inaegualis) was 62. The “% mycelium growth relative to the control” value [1] was 11%, the mycelium growth [1] was 0.6 cm and the “EFFICACY W (Abbot)” value [1] was 89. The “% mycelium growth relative to the control” value (Botrytis cinerea) was 70%, the mycelium growth (Botrytis cinerea) was 6 cm and the “EFFICACY W (Abbot)” value (Botrytis cinerea) was 30.
For Cc1ccc(-c2c(Cl)nc(C#N)n2S(=O)(=O)N(C)C)cc1 [Cyazofamid (80)], the “% mycelium growth relative to the control” value (Phytophthora megasperma) was 100%, the mycelium growth (Phytophthora megasperma) was 5.4 cm and the “EFFICACY W (Abbot)” value (Phytophthora megasperma) was 0. For the same compound, the “% mycelium growth relative to the control” value (Phytium ultimum; V8 medium) was 66%, the mycelium growth (Phytium ultimum; V8 medium, control 8.6 cm) was 5.7 cm and the “EFFICACY W (Abbot)” value (Phytium ultimum; control W=0, no growth W=100) was 76. For the same compound, the “% mycelium growth relative to the control” value (Phytophthora cactorum) was 63%, the mycelium growth (Phytophthora cactorum) was 3.4 cm and the “EFFICACY W (Abbot)” value (Phytophthora cactorum) was 37.
In the case of CCCCCCCCCCCCNC(=N)N [Dodine, dodine, reference compound], the activity at 680000 µg/mL (Venturia inaegualis; Venturia, dodine 680 g/L, read-out: % mycelium growth relative to the control) is reported as 55%, the inhibition of growth at 680000 µg/mL (stock) (Venturia inaegualis; Venturia, dodine 680 g/L, read-out: EFFICACY W (Abbot)) is reported as 45% and the mycelium growth (Venturia inaegualis; dodine 680 g/L) is reported as 1.6 cm.
In the case of N#Cc1c[nH]cc1-c1cccc2c1OC(F)(F)O2 [Fludioxonil (250)], the “% mycelium growth relative to the control” value (Monilinia fructigena) is reported as 61%, the mycelium growth (Monilinia fructigena) is reported as 3.3 cm and the “EFFICACY W (Abbot)” value (Monilinia fructigena) is reported as 39. The “% mycelium growth relative to the control” value (Septoria tritici; V8 medium) was 42%, the mycelium growth (Septoria tritici; V8 medium, control 1.9 cm) was 0.8 cm and the “EFFICACY W (Abbot)” value (Septoria tritici; control W=0, no growth W=100) was 58. For the same compound, the “% mycelium growth relative to the control” value (Rhizoctonia solani; V8 medium) was 55%, the mycelium growth (Rhizoctonia solani; V8 medium, control 8.6 cm) was 4.7 cm and the “EFFICACY W (Abbot)” value (Rhizoctonia solani; control W=0, no growth W=100) was 45. The “% mycelium growth relative to the control” value (Venturia inaegualis; Venturia inaegualis, V8 medium) was 38%, the mycelium growth (Venturia inaegualis; [3]) was 1.1 cm and the “EFFICACY W (Abbot)” value (Venturia inaegualis; Venturia inaegualis) was 62. The “% mycelium growth relative to the control” value (Sclerotinia sclerotiorum; V8 medium) was 0%, the mycelium growth (Sclerotinia sclerotiorum; V8 medium, control 8.6 cm) was 0 cm and the “EFFICACY W (Abbot)” value (Sclerotinia sclerotiorum; control W=0, no growth W=100) was 100. For the same compound, the “% mycelium growth relative to the control” value ([2]; V8 medium) was 0%, the mycelium growth ([2]; V8 medium, control 8.6 cm) was 0 cm and the “EFFICACY W (Abbot)” value ([2]; control W=0, no growth W=100) was 100. The “% mycelium growth relative to the control” value (Fusarium oxysporum; V8 medium) was 86%, the mycelium growth (Fusarium oxysporum; V8 medium, control 8.6 cm) was 7.4 cm and the “EFFICACY W (Abbot)” value (Fusarium oxysporum; control W=0, no growth W=100) was 14. For the same compound, the “% mycelium growth relative to the control” value [1] was 81%, the mycelium growth [1] was 4.4 cm and the “EFFICACY W (Abbot)” value [1] was 19. The “% mycelium growth relative to the control” value (Phytophthora megasperma) was 100%, the mycelium growth (Phytophthora megasperma) was 5.4 cm and the “EFFICACY W (Abbot)” value (Phytophthora megasperma) was 0. The “% mycelium growth relative to the control” value (Verticillium longisporum; V8 medium) was 87%, the mycelium growth (Verticillium longisporum; V8 medium, control 3.9 cm) was 3.4 cm and the “EFFICACY W (Abbot)” value (Verticillium longisporum; control W=0, no growth W=100) was 13. For the same compound, the “% mycelium growth relative to the control” value (Septoria nodorum (1291); V8 medium) was 72%, the mycelium growth (Septoria nodorum (1291); V8 medium, control 5.4 cm) was 3.9 cm and the “EFFICACY W (Abbot)” value (Septoria nodorum (1291); control W=0, no growth W=100) was 28. The “% mycelium growth relative to the control” value (Botrytis cinerea) was 0%, the mycelium growth (Botrytis cinerea) was 0 cm and the “EFFICACY W (Abbot)” value (Botrytis cinerea) was 100. For the same compound, the “% mycelium growth relative to the control” value (Fusarium graminearum; V8 medium) was 73%, the mycelium growth (Fusarium graminearum; V8 medium, control 8.6 cm) was 6.3 cm and the “EFFICACY W (Abbot)” value (Fusarium graminearum; control W=0, no growth W=100) was 27. For the same compound, the “% mycelium growth relative to the control” value (Fusarium equiseti; V8 medium) was 81%, the mycelium growth (Fusarium equiseti; V8 medium, control 8.6 cm) was 7 cm and the “EFFICACY W (Abbot)” value (Fusarium equiseti; control W=0, no growth W=100) was 19. The “% mycelium growth relative to the control” value (Phytophthora cactorum) was 100%, the mycelium growth (Phytophthora cactorum) was 5.4 cm and the “EFFICACY W (Abbot)” value (Phytophthora cactorum) was 0.

Source: patent US20260344673A1, “A SOLID FORM FOR PREPARATION OF AN AQUEOUS DISPERSION, AQUEOUS DISPERSION, STABLE CONCENTRATE, COMBINED AQUEOUS DISPERSION, AND USES THEREOF” (priority 2022, published 2026)
